Measured values taken from article PMC10489644, “In Vitro Evaluation of the Potential for Drug Interactions by Salidroside” (Nutrients, 2023).

Key:
CYP2B6 = test: in vitro; details: human; for % of Positive Control / Mean Enzyme Activity: 48 h
Method: (§1) The sandwich medium was removed, and the hepatocytes were treated with incubation solutions containing salidroside (1, 5, 10, and 30 µM), vehicle (0.1% DMSO), or positive inducers in triplicate for 24 h after the cultures were established. The incubation solution was aspirated and replaced with incubation solution containing the same concentrations of salidroside, vehicle, or positive inducers for an additional 24 h. The total treatment period was 48 h. After the treatment period of 48 h, the incubation solution was aspirated. Hepatocytes were washed twice with pre-warmed HBSS containing 10 mM HEPES (HBSS I) and then the remaining solution was aspirated. Hepatocytes were washed once with pre-warmed HBSS I and incubated with 140 μL of RLT (lysis buffer from RNeasy 96 Kit) supplemented with 1% β-mercaptoethanol. Plates were then stored at −70 °C in a freezer until RNA analysis. Before RNA extraction, the frozen plate was thawed, and cell lysates were transferred to 96-well plates. RNA isolation was performed using a QIAcube RNA extraction system. Reverse transcription was performed to obtain cDNA. Quantification of the selective genes by real-time quantitative polymerase chain reaction (qPCR) was performed with TaqMan universal PCR Master Mix on the Bio-rad CFX384 TouchTM Real-Time PCR System. The relative change in the mRNA level of the selected target genes induced by each test compound was expressed in relation to the vehicle control sample, and fold changes in gene expression were determined by the ΔΔCt method.
(§2) Enzyme activity (%) = PAR with compound/PAR vehicle × 100.

CYP1A2 = test: in vitro; details: human; for % of Positive Control / Mean Enzyme Activity: 48 h
Method: as §1, §2

OC[C@H]1O[C@@H](OCCc2ccc(O)cc2)[C@H](O)[C@@H](O)[C@@H]1O [Salidroside]
fold induction at 48 h, 0.1 µM (CYP2B6): 0.87
fold induction at 48 h, 1 µM (CYP2B6): 0.58
fold induction at 48 h, 10 µM (CYP2B6): 0.87
% of Positive Control (CYP2B6; 0.1 µM): −3%
Mean Enzyme Activity (CYP2B6; 0.1 µM): 0.77 pmol/10^6 cells/min
% of Positive Control (CYP2B6; 1 µM): −9%
Mean Enzyme Activity (CYP2B6; 1 µM): 0.51 pmol/10^6 cells/min
% of Positive Control (CYP2B6; 10 µM): −3%
Mean Enzyme Activity (CYP2B6; 10 µM): 0.76 pmol/10^6 cells/min
fold induction at 48 h, 0.1 µM (CYP1A2): 0.8
fold induction at 48 h, 1 µM (CYP1A2): 0.66
fold induction at 48 h, 10 µM (CYP1A2): 0.76
% of Positive Control (CYP1A2; 0.1 µM): −8%
Mean Enzyme Activity (CYP1A2; 0.1 µM): 2.18 pmol/10^6 cells/min
% of Positive Control (CYP1A2; 1 µM): −13%
Mean Enzyme Activity (CYP1A2; 1 µM): 1.81 pmol/10^6 cells/min
% of Positive Control (CYP1A2; 10 µM): −9%
Mean Enzyme Activity (CYP1A2; 10 µM): 2.08 pmol/10^6 cells/min
